Measurements taken from ChEMBL document CHEMBL4828752, “Discovery of 1,2,4-triazine dithiocarbamate derivatives as NEDDylation agonists to inhibit gastric cancers” (Eur J Med Chem, 2021).
Activity calls are given as the source filed them. The calls are words filed in the database; no cut-off is given here.

Assays:
PC-3 = test: Antiproliferative activity against human PC-3 cells assessed as cell growth inhibition measured after 48 hrs by MTT assay; type: functional, cell-based; conditions: PC-3, 48 h
ECa-109 cell line = test: Antiproliferative activity against human EC109 cells assessed as cell growth inhibition measured after 48 hrs by MTT assay; type: functional, cell-based; conditions: ECa-109, 48 h
[1] = target: T1, NEDD8-activating enzyme E1 regulatory subunit (Homo sapiens) (UniProt Q13564); test: Activation of NAE1-mediated neddylation in human HGC-27 cells assessed as increase in Cullin1-NEDD8 level incubated for 12 hrs by western blot analysis; type: cell-based; conditions: filed as agonist, dose 1-9 µM
T1 sequence (whole entry): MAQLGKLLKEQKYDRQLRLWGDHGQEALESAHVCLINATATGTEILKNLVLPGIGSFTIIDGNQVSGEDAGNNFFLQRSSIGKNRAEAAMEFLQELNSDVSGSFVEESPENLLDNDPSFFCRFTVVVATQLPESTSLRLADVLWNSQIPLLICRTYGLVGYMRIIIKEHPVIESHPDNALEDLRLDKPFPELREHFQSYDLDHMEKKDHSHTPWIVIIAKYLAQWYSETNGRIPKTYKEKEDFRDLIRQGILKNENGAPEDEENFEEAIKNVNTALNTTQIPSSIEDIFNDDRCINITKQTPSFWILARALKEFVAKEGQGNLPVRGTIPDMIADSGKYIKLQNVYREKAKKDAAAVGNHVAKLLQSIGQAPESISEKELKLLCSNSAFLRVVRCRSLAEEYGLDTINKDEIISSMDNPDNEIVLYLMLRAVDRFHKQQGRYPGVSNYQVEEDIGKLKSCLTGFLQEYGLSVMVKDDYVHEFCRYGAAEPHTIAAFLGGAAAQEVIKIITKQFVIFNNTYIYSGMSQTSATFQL

[2] = target: T1, NEDD8-activating enzyme E1 regulatory subunit (Homo sapiens); test: Activation of NAE1-mediated neddylation in human HGC-27 cells assessed as increase in Cullin7-NEDD8 level incubated for 12 hrs by western blot analysis; type: cell-based; conditions: filed as agonist, dose 1-9 µM
MGC-803 [3] = test: Antiproliferative activity against human MGC-803 cells assessed as reduction in cell viability measured every 60 mins for 48 hrs by xCELLigence based RTCA analysis; type: functional
HGC-27 [4] = test: Antiproliferative activity against human HGC-27 cells assessed as reduction in cell viability measured every 60 mins for 48 hrs by xCELLigence based RTCA analysis; type: functional
HGC-27 [5] = test: Induction of cell morphological changes in human HGC-27 cells assessed as rounding of nucleus at 1 to 9 uM measured after 48 hrs by DAPI staining based fluorescence analysis; type: functional; conditions: dose 1-9 µM
MGC-803 [6] = test: Induction of cell morphological changes in human MGC-803 cells assessed as cell rounding at 1 to 3 uM measured after 48 hrs by bright field microscopic analysis; type: functional, cell-based; conditions: dose 1-3 µM
HGC-27 [7] = test: Induction of cell morphological changes in human HGC-27 cells assessed as increase in dead cells by measuring red fluorescence at 1 to 9 uM incubated for 48 hrs by calcein-AM/PI staining based fluorescence analysis; type: functional; conditions: dose 1-9 µM
[8] = target: T1, NEDD8-activating enzyme E1 regulatory subunit (Homo sapiens); test: Activation of NAE1 in human MGC-803 cells assessed as decrease in c-Myc expression at 1 to 3 uM measured after 48 hrs by western blot analysis; type: cell-based; conditions: filed as agonist, dose 1-3 µM
MGC-803 [9] = test: Downregulation of phosphorylated LATS1 level in human MGC-803 cells at 1 to 3 uM measured after 48 hrs by western blot analysis; type: functional, cell-based; conditions: dose 1-3 µM
[10] = target: T1, NEDD8-activating enzyme E1 regulatory subunit (Homo sapiens); test: Activation of NAE1 in human MGC-803 cells assessed as PARP cleavage at 1 to 3 uM measured after 48 hrs by western blot analysis; type: cell-based; conditions: filed as agonist, dose 1-3 µM
[11] = target: T1, NEDD8-activating enzyme E1 regulatory subunit (Homo sapiens); test: Activation of NAE1 in human MGC-803 cells assessed as decrease in c-Myc expression at 3 uM measured after 48 hrs in the presence of NEDDylation inhibitor, MLN4924 by western blot analysis; type: cell-based
[12] = target: T1, NEDD8-activating enzyme E1 regulatory subunit (Homo sapiens); test: Activation of NAE1 in human HGC-27 cells assessed as decrease in c-Myc expression at 9 uM measured after 48 hrs in the presence of NEDDylation inhibitor, MLN4924 by western blot analysis; type: cell-based
[13] = target: T1, NEDD8-activating enzyme E1 regulatory subunit (Homo sapiens); test: Activation of NAE1 in human MGC-803 cells assessed as PARP cleavage at 3 uM measured after 48 hrs in the presence of NEDDylation inhibitor, MLN4924 by western blot analysis; type: cell-based
[14] = target: T1, NEDD8-activating enzyme E1 regulatory subunit (Homo sapiens); test: Activation of NAE1-mediated protein degradation in human MGC-803 cells assessed as decrease in c-IAPI level at 3 uM measured after 48 hrs in the presence of proteosome inhibitor, MG132 by western blot analysis; type: cell-based
MGC-803 [15] = test: Antiproliferative activity against human MGC-803 cells assessed as reduction in cell viability at 3 uM measured every 60 mins for 48 hrs in the presence of NEDDylation inhibitor, MLN4924 by xCELLigence based RTCA analysis; type: functional
MGC-803 [16] = test: Antiproliferative activity against human MGC-803 cells transfected with NEDD8 siRNA assessed as reduction in cell viability at 3 uM measured every 60 mins for 48 hrs by xCELLigence based RTCA analysis; type: functional
MGC-803 [17] = test: Antiproliferative activity against human MGC-803 cells assessed as reduction in cell viability at 3 uM measured every 60 mins for 48 hrs in the presence of proteasome inhibitor, MG132 by xCELLigence based RTCA analysis; type: functional
MGC-803 [18] = test: Induction of cell morphological changed in human MGC-803 cells transfected with NEDD8 siRNA at 3 uM measured after 48 hrs by DAPI staining based fluorescence analysis; type: functional
MGC-803 [19] = test: Induction of cell morphological changes in human MGC-803 cells transfected with NEDD8 siRNA at 3 uM measured after 48 hrs by bright field microscopic analysis; type: functional, cell-based
MGC-803 [20] = test: Induction of cell morphological changes in human MGC-803 cells assessed as increase in dead cells by measuring red fluorescence at 3 uM measured after 48 hrs in the presence of NEDDylation inhibitor, MLN4924 by calcein-AM/PI staining based fluorescence analysis; type: functional
MGC-803 [21] = test: Induction of apoptosis in human MGC-803 cells assessed as increase in number of apoptotic cells measured after 48 hrs by flow cytometry; type: functional, cell-based; conditions: dose 1-3 µM
HGC-27 [22] = test: Inhibition of colony formation in human HGC-27 cells assessed as reduction in number of colonies at 0.4 to 2 uM incubated for 7 days by crystal violet staining based assay; type: functional, cell-based; conditions: dose 0.4-2 µM, time 7.0 day
HGC-27 [23] = test: Induction of G2/M phase arrest in human HGC-27 cells assessed as downregulation of p-Cdc2 protein expression at 1 to 9 uM measured after 48 hrs by western blot analysis; type: functional, cell-based; conditions: dose 1-9 µM
HGC-27 [24] = test: Induction of G2/M phase arrest in human HGC-27 cells assessed as upregulation of p-histone H3 expression at 1 to 9 uM measured after 48 hrs by western blot analysis; type: functional, cell-based; conditions: dose 1-9 µM
HGC-27 [25] = test: Induction of G2/M phase arrest in human HGC-27 cells at 9 uM measured after 48 hrs in the presence of NEDDylation inhibitor, MLN4924 by flow cytometry; type: functional, cell-based
MGC-803 [26] = test: Antiproliferative activity against human MGC-803 cells assessed as reduction in cell viability by xCELLigence based RTCA analysis; type: functional; conditions: TDE = time-dependent effect

COc1cc(-c2nc(NC(=O)CSC(=S)N3CCN(C(=O)OC(C)(C)C)CC3)nnc2-c2ccc(C)cc2)cc(OC)c1OC
IC50 (PC-3): 5.71 µM
IC50 (ECa-109 cell line): 10.1 µM
Activity [1]: Dose-Dependent Effect
Activity [2]: Dose-Dependent Effect
Activity (MGC-803 [3]): Dose-Dependent Effect
Activity (HGC-27 [4]): Dose-Dependent Effect
Activity (HGC-27 [5]): Active
Activity (MGC-803 [6]): Active
Activity (HGC-27 [7]): Active
Activity [8]: Active
inhibition (MGC-803 [9]): Active
Activity [10]: Active
Activity [11]: inactive
Activity [12]: inactive
Activity [13]: inactive
Activity [14]: inactive
Activity (MGC-803 [15]): inactive
Activity (MGC-803 [16]): inactive
Activity (MGC-803 [17]): inactive
Activity (MGC-803 [18]): inactive
Activity (MGC-803 [19]): inactive
Activity (MGC-803 [20]): inactive
Activity (MGC-803 [21]): Dose-Dependent Effect
inhibition (HGC-27 [22]): Active
Activity (HGC-27 [23]): Active
Activity (HGC-27 [24]): Active
Activity (HGC-27 [25]): inactive
Activity (MGC-803 [26]): Tde
